Data taken from ChEMBL document CHEMBL5465560, “Selectivity Literature for EUbOPEN Chemogenomic Library” (2024).
Values belong to the compound of their own block, whether it stands above or below them.

Key:
[1] = biological target: T1, Mitogen-activated protein kinase kinase kinase kinase 2 (Homo sapiens) (UniProt Q12851); test: Selectivity interaction (Ambit KINOMEscan and KiNATiv profiling in Jurkat cells) EUB0000090b MAP4K2; format: cell-based; conditions: at 1 µM
T1 sequence (whole entry): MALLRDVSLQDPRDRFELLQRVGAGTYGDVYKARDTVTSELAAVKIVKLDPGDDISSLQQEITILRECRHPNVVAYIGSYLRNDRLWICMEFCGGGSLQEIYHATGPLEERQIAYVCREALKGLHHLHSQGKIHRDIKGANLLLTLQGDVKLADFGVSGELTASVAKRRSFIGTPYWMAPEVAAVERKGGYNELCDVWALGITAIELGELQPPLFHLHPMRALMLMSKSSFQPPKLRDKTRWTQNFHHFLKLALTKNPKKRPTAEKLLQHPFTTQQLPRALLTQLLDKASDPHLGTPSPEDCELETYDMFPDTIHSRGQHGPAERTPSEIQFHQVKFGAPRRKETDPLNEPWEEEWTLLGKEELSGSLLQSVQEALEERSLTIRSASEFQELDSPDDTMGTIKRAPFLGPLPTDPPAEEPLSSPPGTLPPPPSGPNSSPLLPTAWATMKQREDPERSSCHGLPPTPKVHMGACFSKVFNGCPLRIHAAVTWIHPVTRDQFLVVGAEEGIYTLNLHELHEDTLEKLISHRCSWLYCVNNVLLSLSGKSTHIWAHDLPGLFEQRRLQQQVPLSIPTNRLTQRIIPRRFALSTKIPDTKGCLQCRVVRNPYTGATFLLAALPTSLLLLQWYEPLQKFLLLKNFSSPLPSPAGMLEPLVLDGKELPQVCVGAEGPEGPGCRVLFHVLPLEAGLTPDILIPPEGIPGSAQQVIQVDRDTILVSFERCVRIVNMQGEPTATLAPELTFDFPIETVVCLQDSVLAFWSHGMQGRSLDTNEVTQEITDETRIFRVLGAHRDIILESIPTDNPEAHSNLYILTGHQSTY

[2] = biological target: Cyclin-dependent kinase 20 (Homo sapiens) (UniProt Q8IZL9); test: Selectivity interaction (ActivX KiNativ screen (kinase selectivity in THP-1 cell lysates)) EUB0000639a CDK20; format: subcellular; conditions: lysate
[3] = biological target: Serine/threonine-protein kinase WNK1 (Homo sapiens) (UniProt Q9H4A3); test: Selectivity interaction (ActivX KiNativ screen (kinase selectivity in THP-1 cell lysates)) EUB0000639a WNK1; format: subcellular; conditions: lysate, at 0.04 µM
[4] = biological target: Protein kinase C theta type (Homo sapiens, UniProt Q04759); test: Selectivity interaction (Kinase panel (Z-LYTE Assay)) EUB0001632a PRKCQ; conditions: at 10 µM
[5] = tested on: eIF-2-alpha kinase GCN2 (Homo sapiens), Q9P2K8 [S808G]; test: Selectivity interaction (KinomeScan (DiscoverX)) EUB0000695a EIF2AK4; conditions: at 100 nM
[6] = biological target: Tyrosine-protein kinase BTK (Homo sapiens, UniProt Q06187); conditions: at 10 µM
[7] = tested on: Tyrosine-protein kinase ABL1 (Homo sapiens), P00519 [E255K]; conditions: at 10 µM
[8] = biological target: Cyclin-dependent kinase 8 (Homo sapiens, UniProt P49336); conditions: at 10 µM
[9] = biological target: T2, Ephrin type-A receptor 1 (Homo sapiens) (UniProt P21709); test: Selectivity interaction (KinomeScan (DiscoverX)) EUB0001079a EPHA1; conditions: at 1 µM
T2 sequence (whole entry): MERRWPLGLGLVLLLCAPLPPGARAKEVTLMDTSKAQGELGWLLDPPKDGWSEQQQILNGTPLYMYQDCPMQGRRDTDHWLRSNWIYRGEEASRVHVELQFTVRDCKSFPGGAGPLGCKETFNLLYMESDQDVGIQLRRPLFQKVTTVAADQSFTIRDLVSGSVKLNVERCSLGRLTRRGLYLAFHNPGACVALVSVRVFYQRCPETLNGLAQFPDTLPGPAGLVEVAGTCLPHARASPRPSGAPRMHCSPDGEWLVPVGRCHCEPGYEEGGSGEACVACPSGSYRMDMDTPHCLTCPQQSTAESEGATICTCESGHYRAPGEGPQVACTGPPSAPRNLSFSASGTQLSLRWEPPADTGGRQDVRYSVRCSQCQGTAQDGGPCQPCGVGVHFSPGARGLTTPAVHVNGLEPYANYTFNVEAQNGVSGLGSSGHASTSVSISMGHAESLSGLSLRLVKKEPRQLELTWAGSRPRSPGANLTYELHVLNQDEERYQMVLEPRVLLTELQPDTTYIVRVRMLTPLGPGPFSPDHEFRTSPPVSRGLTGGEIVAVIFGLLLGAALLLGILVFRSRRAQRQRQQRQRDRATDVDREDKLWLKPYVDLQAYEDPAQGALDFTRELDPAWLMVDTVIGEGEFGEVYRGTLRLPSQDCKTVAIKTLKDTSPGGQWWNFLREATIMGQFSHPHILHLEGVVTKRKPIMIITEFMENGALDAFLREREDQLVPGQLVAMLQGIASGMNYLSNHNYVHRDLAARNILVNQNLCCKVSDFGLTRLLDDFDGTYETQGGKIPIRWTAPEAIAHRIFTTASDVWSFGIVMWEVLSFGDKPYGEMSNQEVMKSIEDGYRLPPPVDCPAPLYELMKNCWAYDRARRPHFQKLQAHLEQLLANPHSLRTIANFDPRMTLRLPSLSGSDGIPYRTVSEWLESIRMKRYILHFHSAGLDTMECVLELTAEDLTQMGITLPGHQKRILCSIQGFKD

[10] = biological target: Tyrosine-protein kinase receptor Tie-1 (Homo sapiens) (UniProt P35590); test: Selectivity interaction (KinomeScan (DiscoverX)) EUB0001619a TIE1; conditions: at 1 µM
[11] = biological target: 5'-AMP-activated protein kinase catalytic subunit alpha-1 (Homo sapiens, UniProt Q13131); test: Selectivity interaction (ActivX KiNativ screen (ex vivo kinase selectivity in human PBMCs)) EUB0001619a PRKAA1; format: cell-based; conditions: PBMC, at 1 µM
[12] = biological target: Histone-lysine N-methyltransferase SETD2 (Homo sapiens) (UniProt Q9BYW2); test: Selectivity interaction (Methyltransferase screen (Scintillation proximity assays)) EUB0000255b SETD2
Chain of Histone-lysine N-methyltransferase SETD2 (Homo sapiens) (Q9BYW2 whole entry): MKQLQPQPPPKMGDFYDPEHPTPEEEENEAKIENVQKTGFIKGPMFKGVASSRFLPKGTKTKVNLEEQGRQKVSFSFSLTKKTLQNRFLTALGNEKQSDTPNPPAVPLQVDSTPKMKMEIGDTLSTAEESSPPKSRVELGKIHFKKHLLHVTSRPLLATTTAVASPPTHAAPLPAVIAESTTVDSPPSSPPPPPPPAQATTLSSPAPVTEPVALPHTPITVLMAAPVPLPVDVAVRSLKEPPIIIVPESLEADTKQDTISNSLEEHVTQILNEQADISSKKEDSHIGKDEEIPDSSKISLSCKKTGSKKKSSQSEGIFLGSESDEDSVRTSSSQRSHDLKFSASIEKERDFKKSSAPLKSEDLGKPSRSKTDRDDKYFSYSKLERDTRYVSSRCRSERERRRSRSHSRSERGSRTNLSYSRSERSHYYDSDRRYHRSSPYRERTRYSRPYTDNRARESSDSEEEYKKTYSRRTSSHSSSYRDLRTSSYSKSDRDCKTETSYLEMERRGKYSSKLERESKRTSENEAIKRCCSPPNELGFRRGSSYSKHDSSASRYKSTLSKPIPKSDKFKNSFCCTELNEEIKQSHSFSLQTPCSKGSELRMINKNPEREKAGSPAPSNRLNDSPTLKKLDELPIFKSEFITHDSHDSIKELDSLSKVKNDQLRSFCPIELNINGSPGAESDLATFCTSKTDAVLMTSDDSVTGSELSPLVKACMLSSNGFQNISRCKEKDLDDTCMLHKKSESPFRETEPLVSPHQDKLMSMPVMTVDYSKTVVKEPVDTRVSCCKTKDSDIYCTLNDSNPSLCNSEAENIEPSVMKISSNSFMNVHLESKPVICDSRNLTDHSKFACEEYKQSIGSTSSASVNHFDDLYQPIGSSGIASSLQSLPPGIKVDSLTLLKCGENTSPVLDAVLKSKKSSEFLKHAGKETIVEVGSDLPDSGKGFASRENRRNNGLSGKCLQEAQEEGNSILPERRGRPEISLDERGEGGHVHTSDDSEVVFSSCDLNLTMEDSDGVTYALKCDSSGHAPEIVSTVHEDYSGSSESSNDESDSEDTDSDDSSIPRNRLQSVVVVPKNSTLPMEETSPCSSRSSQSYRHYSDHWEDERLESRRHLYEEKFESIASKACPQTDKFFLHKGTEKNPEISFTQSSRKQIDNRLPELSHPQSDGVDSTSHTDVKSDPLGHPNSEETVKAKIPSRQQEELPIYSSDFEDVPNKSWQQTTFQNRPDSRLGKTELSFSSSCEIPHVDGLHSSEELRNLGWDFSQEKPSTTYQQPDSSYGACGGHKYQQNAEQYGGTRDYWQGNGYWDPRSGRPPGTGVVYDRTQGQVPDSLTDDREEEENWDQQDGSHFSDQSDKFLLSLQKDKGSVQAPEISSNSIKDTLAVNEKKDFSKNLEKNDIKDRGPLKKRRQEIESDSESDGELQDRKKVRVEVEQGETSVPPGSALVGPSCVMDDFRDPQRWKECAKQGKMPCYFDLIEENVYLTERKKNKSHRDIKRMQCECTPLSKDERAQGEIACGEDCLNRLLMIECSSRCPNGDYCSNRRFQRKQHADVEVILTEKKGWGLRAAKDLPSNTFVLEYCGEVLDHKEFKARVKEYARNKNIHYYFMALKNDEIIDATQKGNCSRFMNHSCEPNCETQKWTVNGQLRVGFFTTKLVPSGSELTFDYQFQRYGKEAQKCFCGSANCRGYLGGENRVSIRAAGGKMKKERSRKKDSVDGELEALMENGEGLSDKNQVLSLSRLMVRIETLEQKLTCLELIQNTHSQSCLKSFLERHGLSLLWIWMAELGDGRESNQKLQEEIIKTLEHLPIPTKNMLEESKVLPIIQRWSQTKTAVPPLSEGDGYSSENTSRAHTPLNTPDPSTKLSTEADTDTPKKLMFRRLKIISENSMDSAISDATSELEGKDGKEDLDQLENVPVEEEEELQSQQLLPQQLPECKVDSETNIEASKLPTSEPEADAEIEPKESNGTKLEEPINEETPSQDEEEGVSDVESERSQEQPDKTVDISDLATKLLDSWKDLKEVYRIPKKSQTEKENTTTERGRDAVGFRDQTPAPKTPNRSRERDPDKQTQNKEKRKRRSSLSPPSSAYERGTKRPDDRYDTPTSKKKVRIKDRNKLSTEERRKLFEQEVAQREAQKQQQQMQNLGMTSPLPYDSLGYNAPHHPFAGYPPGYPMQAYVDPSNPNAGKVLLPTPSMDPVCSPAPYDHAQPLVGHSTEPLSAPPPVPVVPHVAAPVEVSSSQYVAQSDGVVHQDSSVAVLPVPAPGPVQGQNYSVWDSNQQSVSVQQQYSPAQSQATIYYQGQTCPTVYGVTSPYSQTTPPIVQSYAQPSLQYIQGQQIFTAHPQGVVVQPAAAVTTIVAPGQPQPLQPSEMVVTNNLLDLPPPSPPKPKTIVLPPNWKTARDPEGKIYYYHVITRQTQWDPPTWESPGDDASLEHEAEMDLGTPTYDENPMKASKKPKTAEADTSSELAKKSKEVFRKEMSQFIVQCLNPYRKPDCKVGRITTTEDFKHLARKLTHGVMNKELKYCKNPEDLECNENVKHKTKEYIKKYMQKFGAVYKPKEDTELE

Chain of Cyclin-dependent kinase 20 (Homo sapiens) (Q8IZL9 whole entry): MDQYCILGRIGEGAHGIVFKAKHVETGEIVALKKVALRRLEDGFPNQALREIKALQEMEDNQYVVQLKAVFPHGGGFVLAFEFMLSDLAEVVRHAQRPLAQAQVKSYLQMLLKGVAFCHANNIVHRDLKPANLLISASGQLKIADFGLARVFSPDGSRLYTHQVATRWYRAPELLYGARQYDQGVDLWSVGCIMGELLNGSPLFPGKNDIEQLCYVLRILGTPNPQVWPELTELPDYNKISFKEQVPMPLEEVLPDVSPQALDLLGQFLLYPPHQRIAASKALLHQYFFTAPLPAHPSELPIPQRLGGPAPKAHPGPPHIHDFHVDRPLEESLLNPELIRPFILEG
Chain of eIF-2-alpha kinase GCN2 (Homo sapiens), Q9P2K8 [S808G] (Q9P2K8 whole entry S808G): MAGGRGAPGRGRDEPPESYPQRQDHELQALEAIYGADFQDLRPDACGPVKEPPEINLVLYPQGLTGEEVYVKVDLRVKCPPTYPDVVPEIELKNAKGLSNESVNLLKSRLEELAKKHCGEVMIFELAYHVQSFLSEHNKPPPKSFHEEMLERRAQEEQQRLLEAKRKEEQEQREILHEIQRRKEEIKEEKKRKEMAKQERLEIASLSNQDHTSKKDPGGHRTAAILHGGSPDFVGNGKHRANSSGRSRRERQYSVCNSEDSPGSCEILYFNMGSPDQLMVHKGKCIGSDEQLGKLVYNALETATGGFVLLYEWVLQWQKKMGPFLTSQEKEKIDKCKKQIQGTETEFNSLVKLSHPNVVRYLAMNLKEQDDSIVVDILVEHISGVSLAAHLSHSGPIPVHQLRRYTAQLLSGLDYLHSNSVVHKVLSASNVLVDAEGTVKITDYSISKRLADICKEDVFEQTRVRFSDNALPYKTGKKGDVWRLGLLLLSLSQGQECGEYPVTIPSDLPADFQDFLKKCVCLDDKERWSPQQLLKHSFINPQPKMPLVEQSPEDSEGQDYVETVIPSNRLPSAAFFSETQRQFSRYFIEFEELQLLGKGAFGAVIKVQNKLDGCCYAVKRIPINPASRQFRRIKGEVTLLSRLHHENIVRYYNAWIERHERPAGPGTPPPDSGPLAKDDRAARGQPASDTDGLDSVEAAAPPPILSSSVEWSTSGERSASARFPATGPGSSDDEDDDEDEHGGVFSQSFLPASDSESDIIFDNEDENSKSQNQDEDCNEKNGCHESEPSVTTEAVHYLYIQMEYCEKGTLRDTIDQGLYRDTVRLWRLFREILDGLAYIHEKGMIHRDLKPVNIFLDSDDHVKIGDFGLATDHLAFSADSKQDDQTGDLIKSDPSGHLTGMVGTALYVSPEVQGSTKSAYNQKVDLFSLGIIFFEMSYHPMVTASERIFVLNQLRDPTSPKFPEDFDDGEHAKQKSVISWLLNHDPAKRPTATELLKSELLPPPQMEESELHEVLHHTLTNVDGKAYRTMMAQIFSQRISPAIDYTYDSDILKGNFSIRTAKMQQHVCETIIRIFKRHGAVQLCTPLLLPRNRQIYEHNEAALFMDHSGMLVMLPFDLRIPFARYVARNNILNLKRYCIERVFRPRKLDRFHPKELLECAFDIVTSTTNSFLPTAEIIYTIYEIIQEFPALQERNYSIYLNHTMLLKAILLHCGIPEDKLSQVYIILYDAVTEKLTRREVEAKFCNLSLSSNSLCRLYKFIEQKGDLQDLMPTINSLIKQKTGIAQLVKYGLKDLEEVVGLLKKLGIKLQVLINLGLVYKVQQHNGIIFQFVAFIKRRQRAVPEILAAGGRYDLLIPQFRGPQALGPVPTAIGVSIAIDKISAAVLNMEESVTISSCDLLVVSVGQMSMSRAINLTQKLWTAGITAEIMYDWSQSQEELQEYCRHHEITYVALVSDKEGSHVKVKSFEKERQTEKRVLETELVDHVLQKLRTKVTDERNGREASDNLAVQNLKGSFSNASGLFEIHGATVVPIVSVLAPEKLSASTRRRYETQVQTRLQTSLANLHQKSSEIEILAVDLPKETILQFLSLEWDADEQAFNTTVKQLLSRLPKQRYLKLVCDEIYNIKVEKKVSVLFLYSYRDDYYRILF
Chain of 5'-AMP-activated protein kinase catalytic subunit alpha-1 (Q13131 whole entry, looked up): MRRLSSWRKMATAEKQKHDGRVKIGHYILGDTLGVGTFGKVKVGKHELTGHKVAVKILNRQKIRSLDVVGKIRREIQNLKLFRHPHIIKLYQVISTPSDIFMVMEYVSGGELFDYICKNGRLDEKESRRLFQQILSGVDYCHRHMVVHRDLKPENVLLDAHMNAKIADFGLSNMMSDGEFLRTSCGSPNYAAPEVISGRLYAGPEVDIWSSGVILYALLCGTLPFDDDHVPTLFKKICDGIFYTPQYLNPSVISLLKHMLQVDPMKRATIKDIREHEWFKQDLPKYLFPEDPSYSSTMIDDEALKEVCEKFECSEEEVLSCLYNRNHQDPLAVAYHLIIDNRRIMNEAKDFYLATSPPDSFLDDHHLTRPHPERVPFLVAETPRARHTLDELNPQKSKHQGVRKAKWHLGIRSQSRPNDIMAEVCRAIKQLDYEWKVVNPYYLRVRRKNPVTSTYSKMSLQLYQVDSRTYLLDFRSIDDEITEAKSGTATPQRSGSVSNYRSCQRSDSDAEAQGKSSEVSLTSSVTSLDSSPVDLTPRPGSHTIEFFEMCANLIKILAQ

SMILES: CN(C)C/C=C/C(=O)Nc1ccc(C(=O)N2CCCC(Nc3ncc(Cl)c(-c4c[nH]c5ccccc45)n3)C2)cc1 (configuration not stated)
% of control [1]: 100%

% of inhibition ([2]; at 0.01 µM): 6.4%
% of inhibition ([2]; at 0.04 µM): -8.7%
% of inhibition ([2]; at 0.2 µM): -2%
% of inhibition ([2]; at 1 µM): -0.8%
% of inhibition ([2]; at 5 µM): -1.4%
% of inhibition [3]: -7.4%
SMILES: CC[C@@H]1[C@H](F)C(=O)N[C@@H]1COc1nccc2cc(C(N)=O)c(OC)cc12 [ZIMLOVISERTIB]

% of control [4]: 14.5%
SMILES: Cn1cc(-n2cnc3c(NCc4nc5cc(Cl)c(Cl)cc5[nH]4)nc(N4CCOCC4)nc32)cn1

SMILES: Cc1cc(F)c(C(=O)Nc2cccc(-c3nncn3C(C)C)n2)cc1-n1cnc(C2CC2)c1
% of control [5]: 77%

% of control [6]: 100%
% of control [7]: 100%
% of control [8]: 100%
SMILES: CCN(CC)CCCCNc1ncc2cc(-c3cc(OC)cc(OC)c3)c(NC(=O)NC(C)(C)C)nc2n1

SMILES: Nc1cnc(N2CCc3cc(S(=O)(=O)Nc4c(F)cc(Cl)cc4F)cc(N4CCCC4=O)c32)nc1 [TP-020n]
% of control [9]: 99%

SMILES: N#Cc1cccc(-c2c[nH]c3ncnc(N4CCOCC4)c23)c1
% of control [10]: 80%
% of inhibition [11]: 33%

SMILES: COCCN1CCC(c2cc(CN(C)C(=O)c3cccc(Oc4ccccc4)c3)ccn2)CC1
% activity ([12]; at 1 µM): > 95%
% activity ([12]; at 10 µM): > 90%
